From PubChem BioAssay AID248 (DTP/NCI, 2004)
Values joined by “and” are separate entries in the source; they are usually repeats but may differ in a detail not shown here. Identical values can stand only once. Inconclusive results and toxic doses are left out. Rule as the data show it: active = T/C of 150% or more; inactive = T/C below 125%.

Test system: L1210 leukemia ip in BDF1 mice, survival T/C
Experiment: NCI In Vivo Anticancer Drug Screen. Data for tumor model L1210 Leukemia (intraperitoneal) in B6D2F1 (BDF1) mice
Settings: endpoint: mean survival time, higher = longer survival
In short: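 Transplantable tumor model; survival measured in treated vs vehicle control mice. Value = treated/control.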

[1] = dose: 25.0 mg/kg/injection, schedule: Q04DX002 (ip), vehicle: saline with Tween-80
[2] = dose: 50.0 mg/kg/injection, schedule: Q04DX002 (ip), vehicle: saline with Tween-80
[3] = dose: 100.0 mg/kg/injection, schedule: Q04DX002 (ip), vehicle: saline with Tween-80
[4] = dose: 200.0 mg/kg/injection, schedule: Q04DX002 (ip), vehicle: saline with Tween-80
[5] = dose: 400.0 mg/kg/injection, schedule: Q04DX002 (ip), vehicle: saline with Tween-80
[6] = dose: 100.0 mg/kg/injection, schedule: Q01DX009 (ip), vehicle: Klucel (hydroxypropylcellulose) (HPC)
[7] = dose: 200.0 mg/kg/injection, schedule: Q01DX009 (ip), vehicle: Klucel (hydroxypropylcellulose) (HPC)
[8] = dose: 400.0 mg/kg/injection, schedule: Q01DX009 (ip), vehicle: Klucel (hydroxypropylcellulose) (HPC)
[9] = dose: 100.0 mg/kg/injection, schedule: Q04DX002 (ip), vehicle: Klucel (hydroxypropylcellulose) (HPC)
[10] = dose: 200.0 mg/kg/injection, schedule: Q04DX002 (ip), vehicle: Klucel (hydroxypropylcellulose) (HPC)
[11] = dose: 400.0 mg/kg/injection, schedule: Q04DX002 (ip), vehicle: Klucel (hydroxypropylcellulose) (HPC)

Measured: T/C

O=C(O)C1C2CCC(O2)C1C(=O)Nc1ccccc1 (stereo unspecified)
inactive: dose: 75.0 mg/kg/injection, schedule: Q01DX001 (ip), vehicle: carboxymethylcellulose (CMC) 102 % of control | dose: 150.0 mg/kg/injection, schedule: Q01DX001 (ip), vehicle: carboxymethylcellulose (CMC) 102 % of control | dose: 300.0 mg/kg/injection, schedule: Q01DX001 (ip), vehicle: carboxymethylcellulose (CMC) 101 % of control

S=C1NC(c2ccc(Cl)cc2)N2C(=S)NC(c3ccc(Cl)cc3)N12 (stereo unspecified)
inactive: dose: 100.0 mg/kg/injection, schedule: Q01DX009 (ip), vehicle: gum acacia 98 % of control | dose: 100.0 mg/kg/injection, schedule: Q04DX003 (ip), vehicle: gum acacia 104 % of control | dose: 200.0 mg/kg/injection, schedule: Q01DX009 (ip), vehicle: gum acacia 93 % of control | dose: 200.0 mg/kg/injection, schedule: Q04DX003 (ip), vehicle: gum acacia 101 % of control | dose: 400.0 mg/kg/injection, schedule: Q04DX003 (ip), vehicle: gum acacia 98 % of control

N=C(N)S/C=C/C(=O)O
inactive: [1] 96 % of control | [2] 96 % of control | [3] 96 % of control and 98 % of control

COc1ccc(Cc2c3cc(OC)c(OC)cc3cc[n+]2[O-])cc1OC
inactive: dose: 100.0 mg/kg/injection, schedule: Q01DX001 (ip), vehicle: saline 91 % of control | dose: 200.0 mg/kg/injection, schedule: Q01DX001 (ip), vehicle: saline 96 % of control | dose: 400.0 mg/kg/injection, schedule: Q01DX001 (ip), vehicle: saline 96 % of control

[B-][N+]12CC[N+]([B-])(CC1)CC2
inactive: dose: 0.06 mg/kg/injection, schedule: Q01DX009 (ip), vehicle: saline sonified 98 % of control | dose: 0.06 mg/kg/injection, schedule: Q04DX003 (ip), vehicle: saline sonified 113 % of control | dose: 0.13 mg/kg/injection, schedule: Q01DX009 (ip), vehicle: saline sonified 96 % of control | dose: 0.13 mg/kg/injection, schedule: Q04DX003 (ip), vehicle: saline sonified 96 % of control | dose: 0.25 mg/kg/injection, schedule: Q01DX009 (ip), vehicle: saline sonified 100 % of control | dose: 0.25 mg/kg/injection, schedule: Q04DX003 (ip), vehicle: saline sonified 103 % of control

NC(=O)c1c(/N=C/c2ccccc2Cl)sc2c1CCCC2
inactive: [3] 91 % of control | [4] 87 % of control | [5] 91 % of control

COc1cc(NS(C)(=O)=O)ccc1NS(C)(=O)=O
inactive: [6] 112 % of control | dose: 100.0 mg/kg/injection, schedule: Q04DX003 (ip), vehicle: Klucel (hydroxypropylcellulose) (HPC) 108 % of control | [7] 108 % of control | dose: 200.0 mg/kg/injection, schedule: Q04DX003 (ip), vehicle: Klucel (hydroxypropylcellulose) (HPC) 94 % of control | [8] 103 % of control | dose: 400.0 mg/kg/injection, schedule: Q04DX003 (ip), vehicle: Klucel (hydroxypropylcellulose) (HPC) 100 % of control

CCCCOP(=O)(OCCCC)OC(C#N)CCC (stereo unspecified)
inactive: [9] 107 % of control | [10] 98 % of control

NC(N)=NCCCC(N)C(=O)NCCCCCCNC(=O)C(N)CCCN=C(N)N (stereo unspecified)
inactive: dose: 10.0 mg/kg/injection, schedule: Q01DX Z (ip), vehicle: saline 97 % of control | dose: 30.0 mg/kg/injection, schedule: Q01DX Z (ip), vehicle: saline 108 % of control | dose: 100.0 mg/kg/injection, schedule: Q01DX Z (ip), vehicle: saline 90 % of control

Cc1cc(C(=O)O)c(CO)c(=O)n1C
inactive: dose: 100.0 mg/kg/injection, schedule: Q04DX003 (ip), vehicle: water 104 % of control | dose: 200.0 mg/kg/injection, schedule: Q04DX003 (ip), vehicle: water 104 % of control | dose: 400.0 mg/kg/injection, schedule: Q04DX003 (ip), vehicle: water 94 % of control

NC(=O)C1(O)C(Cl)(Cl)CCCC1(Cl)Cl
inactive: dose: 50.0 mg/kg/injection, schedule: Q01DX009 (ip), vehicle: saline with Tween-80 102 % of control | dose: 100.0 mg/kg/injection, schedule: Q01DX009 (ip), vehicle: saline with Tween-80 91 % of control | dose: 200.0 mg/kg/injection, schedule: Q01DX009 (ip), vehicle: saline with Tween-80 106 % of control

CCOC(=O)N(C)C1CCC1NC (stereo unspecified)
inactive: dose: 100.0 mg/kg/injection, schedule: Q04DX003 (ip), vehicle: saline 98 % of control | dose: 200.0 mg/kg/injection, schedule: Q04DX003 (ip), vehicle: saline 112 % of control | dose: 400.0 mg/kg/injection, schedule: Q04DX003 (ip), vehicle: saline 104 % of control

O=C(Nc1ccc(Cl)c([N+](=O)[O-])c1)Oc1ccc2ccccc2c1
inactive: dose: 100.0 mg/kg/injection, schedule: Q01DX009 (ip), vehicle: other 92 % of control | dose: 200.0 mg/kg/injection, schedule: Q01DX009 (ip), vehicle: other 97 % of control | dose: 400.0 mg/kg/injection, schedule: Q01DX009 (ip), vehicle: other 107 % of control

Cc1nn(C)c(N)c1C#N
inactive: dose: 25.0 mg/kg/injection, schedule: Q01DX009 (ip), vehicle: saline 97 % of control | dose: 50.0 mg/kg/injection, schedule: Q01DX009 (ip), vehicle: saline 97 % of control | dose: 100.0 mg/kg/injection, schedule: Q01DX001 (ip), vehicle: Klucel (hydroxypropylcellulose) (HPC) 107 % of control | dose: 100.0 mg/kg/injection, schedule: Q01DX009 (ip), vehicle: saline 111 % of control | dose: 200.0 mg/kg/injection, schedule: Q01DX001 (ip), vehicle: Klucel (hydroxypropylcellulose) (HPC) 104 % of control | dose: 200.0 mg/kg/injection, schedule: Q01DX009 (ip), vehicle: saline 106 % of control | dose: 400.0 mg/kg/injection, schedule: Q01DX001 (ip), vehicle: Klucel (hydroxypropylcellulose) (HPC) 104 % of control | dose: 400.0 mg/kg/injection, schedule: Q01DX009 (ip), vehicle: saline 100 % of control

CCOP(=O)(OCC)OC(C)CC (stereo unspecified)
inactive: [3] 109 % of control | [4] 103 % of control | [5] 106 % of control

O=C(Nc1cccc2ccccc12)C(Cl)Cl
inactive: [9] 100 % of control | [10] 93 % of control | [11] 93 % of control

CC(C)CCS(=O)c1ccccc1 (stereo unspecified)
inactive: dose: 75.0 mg/kg/injection, schedule: Q01DX001 (ip), vehicle: acetone 91 % of control | dose: 75.0 mg/kg/injection, schedule: Q04DX003 (ip), vehicle: acetone 100 % of control | dose: 150.0 mg/kg/injection, schedule: Q01DX001 (ip), vehicle: acetone 100 % of control | dose: 150.0 mg/kg/injection, schedule: Q04DX003 (ip), vehicle: acetone 97 % of control | dose: 300.0 mg/kg/injection, schedule: Q01DX001 (ip), vehicle: acetone 98 % of control | dose: 300.0 mg/kg/injection, schedule: Q04DX003 (ip), vehicle: acetone 89 % of control

CC(=O)O/N=C(/CCC(=O)O)c1ccccc1
inactive: [2] 97 % of control | [3] 108 % of control | [4] 94 % of control

CC[As](=O)(O)c1ccc([N+](=O)[O-])cc1
inactive: dose: 100.0 mg/kg/injection, schedule: Q01DX001 (ip), vehicle: saline with Tween-80 101 % of control

CC(CO)CCC(=O)C(C)C1C2(CC3C4CCC5CC(O)CCC5(C)C4CCC31C)SCCS2 (stereo unspecified)
inactive: [1] 100 % of control | [2] 100 % of control | [3] 96 % of control

O=C1C=C2C(=CCOC2O)O1 (stereo unspecified)
inactive: dose: 0.25 mg/kg/injection, schedule: Q01DX009 (ip), vehicle: Klucel (hydroxypropylcellulose) (HPC) 97 % of control | dose: 0.5 mg/kg/injection, schedule: Q01DX009 (ip), vehicle: Klucel (hydroxypropylcellulose) (HPC) 103 % of control | dose: 1.0 mg/kg/injection, schedule: Q01DX009 (ip), vehicle: Klucel (hydroxypropylcellulose) (HPC) 109 % of control | dose: 2.0 mg/kg/injection, schedule: Q01DX009 (ip), vehicle: Klucel (hydroxypropylcellulose) (HPC) 104 % of control | dose: 4.0 mg/kg/injection, schedule: Q01DX009 (ip), vehicle: Klucel (hydroxypropylcellulose) (HPC) 101 % of control

Cc1c(Cl)cccc1NC(=O)Nc1ccccc1F
inactive: [6] 91 % of control | [9] 97 % of control | [7] 106 % of control | [10] 97 % of control | [8] 96 % of control | [11] 94 % of control

CSc1nc(N)nc2c1nc(SC)n2C1OC(CO)C(O)C1O (stereo unspecified)
inactive: dose: 100.0 mg/kg/injection, schedule: Q01DX005 (ip), vehicle: saline 102 % of control | dose: 200.0 mg/kg/injection, schedule: Q01DX005 (ip), vehicle: saline 94 % of control
